Like-named read-outs stand apart in the source and are kept apart here.
Key:
[1] = test system: H1975; assay: MTT anti-proliferative assay, H1975 cells; type: cell-based; details: Homo sapiens, NCI-H1975, 48 h, read-out: IC50 (μM) H1975
[2] = target: EGFR^T790M (Homo sapiens, UniProt P00533, T790M); assay: biochemical; type: biochemical
[3] = target: EGFR^WT (Homo sapiens, UniProt P00533); assay: biochemical
[4] = test system: A549; assay: cells; type: cell-based; details: Homo sapiens, A549, 48 h, read-out: IC50 (μM) A549
[5] = test system: A431; assay: MTT anti-proliferative assay, A431 cells; type: cell-based, human; details: read-out: IC50 (μM) A431

Chain of EGFR^T790M (P00533 25-1210 T790M): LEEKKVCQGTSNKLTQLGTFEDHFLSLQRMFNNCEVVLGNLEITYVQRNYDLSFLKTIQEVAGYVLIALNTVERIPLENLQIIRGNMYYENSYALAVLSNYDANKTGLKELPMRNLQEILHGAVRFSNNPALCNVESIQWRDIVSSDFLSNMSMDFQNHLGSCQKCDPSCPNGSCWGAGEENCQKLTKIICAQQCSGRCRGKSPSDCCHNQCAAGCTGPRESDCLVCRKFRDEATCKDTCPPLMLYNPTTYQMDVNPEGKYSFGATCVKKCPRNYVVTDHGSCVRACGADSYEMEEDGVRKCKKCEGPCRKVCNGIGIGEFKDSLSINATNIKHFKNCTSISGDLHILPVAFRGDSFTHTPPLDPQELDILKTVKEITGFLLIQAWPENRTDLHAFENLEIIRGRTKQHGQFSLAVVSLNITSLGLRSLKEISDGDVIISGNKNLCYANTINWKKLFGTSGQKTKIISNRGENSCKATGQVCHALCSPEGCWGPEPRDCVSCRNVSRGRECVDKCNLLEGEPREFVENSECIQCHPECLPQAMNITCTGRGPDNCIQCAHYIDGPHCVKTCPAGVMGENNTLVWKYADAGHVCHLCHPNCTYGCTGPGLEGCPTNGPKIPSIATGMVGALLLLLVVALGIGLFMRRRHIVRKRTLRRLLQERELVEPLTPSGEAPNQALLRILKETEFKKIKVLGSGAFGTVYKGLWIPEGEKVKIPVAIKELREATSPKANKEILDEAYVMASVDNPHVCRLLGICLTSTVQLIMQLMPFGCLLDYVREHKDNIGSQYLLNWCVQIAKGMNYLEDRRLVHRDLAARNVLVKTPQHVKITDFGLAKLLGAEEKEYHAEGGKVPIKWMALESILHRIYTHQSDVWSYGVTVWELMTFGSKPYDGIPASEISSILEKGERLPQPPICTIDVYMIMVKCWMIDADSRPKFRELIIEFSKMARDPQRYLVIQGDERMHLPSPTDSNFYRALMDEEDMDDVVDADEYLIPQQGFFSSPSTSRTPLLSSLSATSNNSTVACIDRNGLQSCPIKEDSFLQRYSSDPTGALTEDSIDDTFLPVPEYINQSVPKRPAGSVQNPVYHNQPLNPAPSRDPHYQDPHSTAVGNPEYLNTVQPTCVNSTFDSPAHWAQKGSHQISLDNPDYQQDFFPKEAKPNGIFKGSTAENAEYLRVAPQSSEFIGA
Chain of EGFR^WT (P00533 25-1210): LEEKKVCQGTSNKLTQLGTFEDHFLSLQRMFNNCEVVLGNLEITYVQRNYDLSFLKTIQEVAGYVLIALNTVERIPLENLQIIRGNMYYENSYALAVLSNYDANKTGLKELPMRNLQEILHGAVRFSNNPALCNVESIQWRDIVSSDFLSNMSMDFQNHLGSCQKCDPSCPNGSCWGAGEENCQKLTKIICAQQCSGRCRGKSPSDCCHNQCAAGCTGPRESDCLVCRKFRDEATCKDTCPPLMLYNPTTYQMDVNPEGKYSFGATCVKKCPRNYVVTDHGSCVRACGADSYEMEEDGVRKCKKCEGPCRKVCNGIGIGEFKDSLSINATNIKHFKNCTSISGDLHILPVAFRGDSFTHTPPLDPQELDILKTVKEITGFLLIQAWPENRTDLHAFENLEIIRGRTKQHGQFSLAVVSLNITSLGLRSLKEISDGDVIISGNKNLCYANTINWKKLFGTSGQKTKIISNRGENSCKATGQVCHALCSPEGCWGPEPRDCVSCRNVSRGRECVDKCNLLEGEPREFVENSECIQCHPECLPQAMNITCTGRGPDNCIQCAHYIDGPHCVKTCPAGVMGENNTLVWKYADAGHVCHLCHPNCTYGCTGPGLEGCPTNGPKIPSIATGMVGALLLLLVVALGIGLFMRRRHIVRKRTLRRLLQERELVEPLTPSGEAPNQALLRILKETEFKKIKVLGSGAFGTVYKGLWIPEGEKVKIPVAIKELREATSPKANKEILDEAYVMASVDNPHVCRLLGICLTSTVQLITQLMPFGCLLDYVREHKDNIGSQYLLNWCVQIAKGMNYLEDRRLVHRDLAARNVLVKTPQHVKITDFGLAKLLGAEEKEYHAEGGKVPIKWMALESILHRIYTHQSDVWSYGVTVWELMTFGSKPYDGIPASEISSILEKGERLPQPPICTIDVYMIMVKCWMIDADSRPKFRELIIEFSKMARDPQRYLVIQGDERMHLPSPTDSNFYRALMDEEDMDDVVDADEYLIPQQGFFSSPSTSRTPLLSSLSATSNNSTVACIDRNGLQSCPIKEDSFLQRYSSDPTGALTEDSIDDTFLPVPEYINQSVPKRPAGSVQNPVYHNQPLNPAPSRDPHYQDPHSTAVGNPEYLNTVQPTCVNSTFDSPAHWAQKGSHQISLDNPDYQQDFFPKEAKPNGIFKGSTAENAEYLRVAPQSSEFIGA

Row | SMILES | IC50 [1] | IC50 [2] | IC50 [3] | IC50 [4] | fold more potent than gefitinib (EGFR^T790M IC50) ([2]; relative to gefitinib) | IC50 ([5]; MTT, two-day incubation, mean ± SD, n = 3) | IC50 ([5]; Homo sapiens, A-431, 48 h)
1 | CCC(=O)C(=NNc1ccc(S(=O)(=O)Nc2ncccn2)cc1)C(C)=O [Compound 5, 4-(2-(2,4-Dioxohexan-3-ylidene)hydrazineyl)-N-(pyrimidin-2-yl)benzenesulfonamide] | 20.1 ± 2.21 µM | 0.0936 ± 0.0085 µM | 0.0492 ± 0.0067 µM | 19.2 ± 3.09 µM |  |  | 
2 | CC(=O)C(=NNc1ccc(S(=O)(=O)Nc2ncccn2)cc1)C(C)=O [Compound 6, 4-(2-(2,4-Dioxopentan-3-ylidene)hydrazineyl)-N-(pyrimidin-2-yl)benzenesulfonamide] | 15.7 ± 0.21 µM | 0.0668 ± 0.0104 µM | 0.0526 ± 0.0093 µM | 16.6 ± 0.92 µM |  |  | 
3 | CC(=O)C(=NNc1ccc(S(=O)(=O)Nc2ncccn2)cc1)C(=O)c1ccccc1 [Compound 8, 4-[2-(1-Benzoyl-2-oxopropylidene)hydrazino]-N-pyrimidin-2-ylbenzenesulfonamide] | 2.31 ± 0.23 µM | 0.0096 ± 0.0032 µM | 0.0232 ± 0.0001 µM | 4.78 ± 0.12 µM | 38 fold | 4.12 ± 0.54 µM | 
4 | CCOC(=O)/C(C#N)=N\Nc1ccc(S(=O)(=O)Nc2ncccn2)cc1 [Compound 9, Ethyl (Z)-2-cyano-2-(2-(4-(N-(pyrimidin-2-yl)sulfamoyl)phenyl)hydrazineylidene)acetate] | 13.1 ± 0.67 µM | 0.0171 ± 0.0001 µM | 0.0435 ± 0.0002 µM | 15 ± 1.27 µM |  |  | 
5 | N#CC(=NNc1ccc(S(=O)(=O)Nc2ncccn2)cc1)C(N)=S [Compound 10, 2-Cyano-(2-(4-(N-(pyrimidin-2-yl)sulfamoyl)phenyl)hydrazono)ethanethioamide] | 15.8 ± 2.48 µM | 0.0608 ± 0.0062 µM | 0.0315 ± 0.0058 µM | 19.7 ± 0.34 µM |  |  | 
6 | N#CC(=NNc1ccc(S(=O)(=O)Nc2ncccn2)cc1)C(N)=C(C#N)C#N [Compound 11, 2-Amino-3,3-dicyano-N-(4-(N-(pyrimidin-2-yl)sulfamoyl)phenyl)acrylohydrazonoyl cyanide] | 14.1 ± 1.23 µM | 0.133 ± 0.0162 µM | 0.0477 ± 0.0114 µM | 13.6 ± 1.32 µM |  |  | 15.1 ± 0.58 µM
7 | CCOC(=O)C(=NNc1ccc(S(=O)(=O)Nc2ncccn2)cc1)C(=O)OCC [Compound 12, Diethyl 2-(2-(4-(N-(pyrimidin-2-yl)sulfamoyl)phenyl)hydrazineylidene)malonate] | 6.12 ± 0.24 µM | 0.0354 ± 0.0086 µM | 0.0145 ± 0.0075 µM | 5.15 ± 0.3 µM |  |  | 
8 | CSC1=NC(=N)C(=NNc2ccc(S(=O)(=O)Nc3ncccn3)cc2)C(N)=C1C#N [Compound 13, 4-{-2-[4-Amino-5-cyano-2-imino-6-(methylthio)pyridin-3(2H)-ylidene]hydrazino}-N-pyrimidin-2-ylbenzenesulfonamide] | 17.1 ± 1.62 µM | 0.215 ± 0.0152 µM | 0.0417 ± 0.0082 µM | 15.5 ± 1.34 µM |  |  | 
9 | CSc1nc(NC(=O)C(=NNc2ccc(S(=O)(=O)Nc3ncccn3)cc2)C(C)=O)cc(N)c1C#N [Compound 14, N-(4-Amino-5-cyano-6-(methylthio)pyridin-2-yl)-3-oxo-2-{[4-(pyrimidin-2-ylsulfamoyl)phenyl]hydrazono}butanamide] | 4.59 ± 0.43 µM | 0.0243 ± 0.0034 µM | 0.0153 ± 0.0031 µM | 7.56 ± 0.27 µM |  |  | 
10 | C#Cc1cccc(Nc2ncnc3cc(OCCOC)c(OCCOC)cc23)c1 [Erlotinib, reference compound] | 12.9 ± 1.23 µM |  |  | 17.5 ± 2.34 µM |  |  | 
11 | C=CC(=O)Nc1cc(Nc2nccc(-c3cn(C)c4ccccc34)n2)c(OC)cc1N(C)CCN(C)C [Osimertinib, reference compound] | 0.93 ± 0.09 µM |  |  |  |  |  | 

Reference: PMC11378702 (RSC Advances, 2024)
